In brackets after ≈: the same amount, converted by molar mass.
Assays:
Format in all cases: functional
Candida albicans = assay: Antifungal activity against Candida albicans MTCC 183 by agar streak dilution method
Aspergillus niger = assay: Antifungal activity against Aspergillus niger MTCC 282 by agar streak dilution method
Klebsiella pneumoniae = assay: Antibacterial activity against Klebsiella pneumoniae MTCC 109 by agar streak dilution method
Pseudomonas aeruginosa = assay: Antibacterial activity against Pseudomonas aeruginosa MTCC 741 by agar streak dilution method
Escherichia coli = assay: Antibacterial activity against Escherichia coli MTCC 739 by agar streak dilution method
Bacillus cereus = assay: Antibacterial activity against Bacillus cereus MTCC 619 by agar streak dilution method
Staphylococcus aureus = assay: Antibacterial activity against Staphylococcus aureus MTCC 96 by agar streak dilution method

Row | Compound | MIC (Candida albicans) [µg/mL] | MIC (Aspergillus niger) [µg/mL] | MIC (Klebsiella pneumoniae) [µg/mL] | MIC (Pseudomonas aeruginosa) [µg/mL] | MIC (Escherichia coli) [µg/mL] | MIC (Bacillus cereus) [µg/mL] | MIC (Staphylococcus aureus) [µg/mL]
1 | CCOc1ccc2nc(NC(=O)CSc3nnc(-c4ccc5ncccc5c4)n3-c3cccc4ccccc34)sc2c1 | 6.25 (≈ 10.6 µM) | 12.5 (≈ 21.2 µM) | 100 (≈ 170 µM) | 25 (≈ 42.5 µM) | 100 (≈ 170 µM) | 100 (≈ 170 µM) | 200 (≈ 340 µM)
2 | OC(Cn1cncn1)(Cn1cncn1)c1ccc(F)cc1F [FLUCONAZOLE] | 12.5 (≈ 40.8 µM) | 6.25 (≈ 20.4 µM) |  |  |  |  | 
3 | COc1ccc2nc(NC(=O)CSc3nnc(-c4ccc5ncccc5c4)n3-c3cccc4ccccc34)sc2c1 | 25 (≈ 43.5 µM) | 6.25 (≈ 10.9 µM) | 62.5 (≈ 109 µM) | 50 (≈ 87 µM) | 62.5 (≈ 109 µM) | 100 (≈ 174 µM) | 100 (≈ 174 µM)
4 | O=C(CSc1nnc(-c2ccc3ncccc3c2)n1-c1cccc2ccccc12)Nc1nc2ccc([N+](=O)[O-])cc2s1 | 50 (≈ 84.8 µM) | 6.25 (≈ 10.6 µM) | 50 (≈ 84.8 µM) | 50 (≈ 84.8 µM) | 50 (≈ 84.8 µM) | 62.5 (≈ 106 µM) | 200 (≈ 339 µM)
5 | GENTAMICIN |  |  | 25 | 12.5 | 12.5 | 6.25 | 6.25
6 | O=C(CSc1nnc(-c2ccc3ncccc3c2)n1-c1cccc2ccccc12)Nc1nc2ccccc2s1 | 100 (≈ 184 µM) | 200 (≈ 367 µM) | 500 (≈ 918 µM) | 500 (≈ 918 µM) | 250 (≈ 459 µM) | 250 (≈ 459 µM) | 500 (≈ 918 µM)
7 | O=C(CSc1nnc(-c2ccc3ncccc3c2)n1-c1cccc2ccccc12)Nc1nc2ccc(Cl)cc2s1 | 50 (≈ 86.3 µM) | 100 (≈ 173 µM) | 62.5 (≈ 108 µM) | 200 (≈ 345 µM) | 100 (≈ 173 µM) | 100 (≈ 173 µM) | 200 (≈ 345 µM)
8 | O=C(CSc1nnc(-c2ccc3ncccc3c2)n1-c1cccc2ccccc12)Nc1nc2ccc(I)cc2s1 | 62.5 (≈ 93.2 µM) | 62.5 (≈ 93.2 µM) | 100 (≈ 149 µM) | 250 (≈ 373 µM) | 250 (≈ 373 µM) | 200 (≈ 298 µM) | 250 (≈ 373 µM)
9 | CC1(C)S[C@@H]2[C@H](NC(=O)[C@H](N)c3ccccc3)C(=O)N2[C@H]1C(=O)O [AMPICILLIN] |  |  | 25 (≈ 71.5 µM) | 25 (≈ 71.5 µM) | 6.25 (≈ 17.9 µM) | 12.5 (≈ 35.8 µM) | 12.5 (≈ 35.8 µM)
10 | CC(=O)Nc1ccc2nc(NC(=O)CSc3nnc(-c4ccc5ncccc5c4)n3-c3cccc4ccccc34)sc2c1 | 100 (≈ 166 µM) | 62.5 (≈ 104 µM) | 250 (≈ 415 µM) | 62.5 (≈ 104 µM) | 200 (≈ 332 µM) | 250 (≈ 415 µM) | 500 (≈ 831 µM)
11 | N#Cc1ccc2nc(NC(=O)CSc3nnc(-c4ccc5ncccc5c4)n3-c3cccc4ccccc34)sc2c1 | 6.25 (≈ 11 µM) | 100 (≈ 176 µM) | 50 (≈ 87.8 µM) | 100 (≈ 176 µM) | 50 (≈ 87.8 µM) | 200 (≈ 351 µM) | 500 (≈ 878 µM)
12 | O=C(CSc1nnc(-c2ccc3ncccc3c2)n1-c1cccc2ccccc12)Nc1nc2ccc(F)cc2s1 | 50 (≈ 88.9 µM) | 25 (≈ 44.4 µM) | 62.5 (≈ 111 µM) | 100 (≈ 178 µM) | 100 (≈ 178 µM) | 50 (≈ 88.9 µM) | 25 (≈ 44.4 µM)
13 | O=C(CSc1nnc(-c2ccc3ncccc3c2)n1-c1cccc2ccccc12)Nc1nc2ccc(Br)cc2s1 | 25 (≈ 40.1 µM) | 50 (≈ 80.2 µM) | 100 (≈ 160 µM) | 100 (≈ 160 µM) | 62.5 (≈ 100 µM) | 25 (≈ 40.1 µM) | 50 (≈ 80.2 µM)
14 | Cc1ccc2nc(NC(=O)CSc3nnc(-c4ccc5ncccc5c4)n3-c3cccc4ccccc34)sc2c1 | 200 (≈ 358 µM) | 50 (≈ 89.5 µM) | 500 (≈ 895 µM) | 100 (≈ 179 µM) | 200 (≈ 358 µM) | 250 (≈ 447 µM) | > 500

From ChEMBL document CHEMBL3098118, “Access to a new class of biologically active quinoline based 1,2,4-triazoles” (2014)
